Data from patent publication US7285564B2, “Substituted 4-amino-1-(pyridylmethyl)piperidine and related compounds” (Theravance, Inc., priority 2002, dated 2007).

Molecular target: T1, hM2 receptor (Homo sapiens, UniProt P08172)
T1 construct: expressed in transfected cells; membranes prepared
T1 sequence (P08172 1-466): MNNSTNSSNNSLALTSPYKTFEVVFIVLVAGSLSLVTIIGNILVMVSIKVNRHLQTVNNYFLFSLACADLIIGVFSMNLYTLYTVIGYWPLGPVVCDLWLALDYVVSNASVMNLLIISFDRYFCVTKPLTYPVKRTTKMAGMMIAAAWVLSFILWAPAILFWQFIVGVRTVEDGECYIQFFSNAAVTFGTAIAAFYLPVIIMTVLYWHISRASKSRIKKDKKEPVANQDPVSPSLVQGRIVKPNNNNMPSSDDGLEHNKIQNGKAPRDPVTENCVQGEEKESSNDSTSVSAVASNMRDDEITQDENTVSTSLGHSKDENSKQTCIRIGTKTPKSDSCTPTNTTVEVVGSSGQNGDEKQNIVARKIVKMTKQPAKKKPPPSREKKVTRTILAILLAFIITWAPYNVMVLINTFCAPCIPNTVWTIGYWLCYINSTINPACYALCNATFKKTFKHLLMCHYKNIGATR
Test: Blockade of agonist-mediated inhibition of cAMP accumulation
Assay type: cell-based
Conditions: CHO-K1 cells expressing the hM2 receptor; read-out: Ki for blockade of oxotremorine-inhibition of forskolin-mediated cAMP accumulation
Method: In this assay, the functional potency of a test compound was determined by measuring the ability of the test compound to block oxotremorine-inhibition of forskolin-mediated cAMP accumulation in CHO-K 1 cells expressing the hM2 receptor.
cAMP assays were performed in a radioimmunoassay format using the Flashplate Adenylyl Cyclase Activation Assay System with ^125]-cAMP (NEN SMP004B, PerkinElmer Life Sciences Inc., Boston, Mass.), according to the manufacturer's instructions.
CHO-K1 cells stably expressing cloned human M2 muscarinic receptors were grown to near confluency in a 5% CO2, 37° C. incubator in medium consisting of HAM's F-12 supplemented with 10% FBS (Fetal Bovine Serum) and 250 μg/mL Geneticin. […] The cell pellet was then re-suspended in 10 mL dPBS, and the cells were counted with a Coulter Z1 Dual Particle Counter (Beckman Coulter, Fullerton, Calif.). […]
Reactions were incubated for 10 minutes at 37° C. and stopped by addition of 100 μL ice-cold detection buffer. Plates were sealed, incubated overnight at room temperature and counted the next morning on a PerkinElmer TopCount liquid scintillation counter (PerkinElmer Inc., Wellesley, Mass.). The amount of cAMP produced (pmol/well) was calculated based on the counts observed for the samples and cAMP standards, as described in the manufacturer's user manual. […]

COc1ccncc1CN1CCC(N(CCCCCCCN2CC[C@@H](C(C(N)=O)(c3ccccc3)c3ccccc3)C2)C(C)C)CC1 [Example 1]
Ki: < 1 nM
